Each compound was assayed against human factor Xa (FXa) (Homo sapiens, UniProt P00742) (assay: Determination of the factor Xa inhibition (chromogenic substrate)). Settings: chromogenic substrate Pefachrome FXa, 25° C., extinction at 405 nm.
Type: biochemical
Protocol: The enzymatic activity of human factor Xa (FXa) is measured using the conversion of a chromogenic substrate specific for FXa. Factor Xa cleaves p-nitroaniline from the chromogenic substrate. The determinations are carried out in microtitre plates as follows:
The test substances, in various concentrations, are dissolved in DMSO and incubated for 10 minutes at 25° C. with human FXa ([…] dissolved in 50 mmol/l of Tris buffer [C,C,C-tris(hydroxymethyl)aminomethane], 150 mmol/l of NaCl, 0.1% BSA [bovine serum albumin], pH=8.3). Pure DMSO is used as control. The chromogenic substrate (150 μmol/l Pefachrome® FXa from Pentapharm) is then added. After an incubation time of 20 minutes at 25° C., the extinction at 405 nm is determined.

human factor Xa (FXa), sequence (P00742 235-488 limits assumed): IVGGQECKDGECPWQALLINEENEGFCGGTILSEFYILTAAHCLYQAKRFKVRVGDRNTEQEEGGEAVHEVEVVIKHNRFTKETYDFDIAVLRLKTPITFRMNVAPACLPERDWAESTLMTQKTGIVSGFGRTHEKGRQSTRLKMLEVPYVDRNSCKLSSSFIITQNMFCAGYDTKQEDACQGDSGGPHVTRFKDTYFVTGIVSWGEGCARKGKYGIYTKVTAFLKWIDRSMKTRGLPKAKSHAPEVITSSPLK
human factor Xa (FXa), sequence (P00742 41-179 partner limits assumed): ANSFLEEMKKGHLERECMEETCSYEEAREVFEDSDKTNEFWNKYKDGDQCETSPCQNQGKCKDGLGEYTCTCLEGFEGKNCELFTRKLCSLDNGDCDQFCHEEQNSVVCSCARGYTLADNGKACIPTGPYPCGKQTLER

IC50	Structure (SMILES)
0.64 nM	N=C1OCCN1c1ccc(NC(=O)c2nccnc2C(=O)Nc2ccc(Cl)cn2)cc1 [Example 1, N-(5-Chloropyridin-2-yl)-N′-[4-(2-imino-1,3-oxazolidin-3-yl)phenyl]pyrazine-2,3-dicarboxamide methanesulphonate]
2.6 nM	N=C1OCCCN1c1ccc(NC(=O)c2nccnc2C(=O)Nc2ccc(Cl)cn2)cc1 [Example 5, N-(5-Chloropyridin-2-yl)-N′-[4-(2-imino-1,3-oxazinan-3-yl)phenyl]pyrazine-2,3-dicarboxamide methanesulphonate]
0.3 nM	Cc1nc(C(=O)Nc2ccc(Cl)cn2)c(C(=O)Nc2ccc(N3CCOC3=N)cc2)s1 [Example 12, N^4-(5-Chloropyridin-2-yl)-N^5-[4-(2-imino-1,3-oxazolidin-3-yl)phenyl]-2-methyl-1,3-thiazole-4,5-dicarboxamide methanesulphonate]
4.4 nM	Cc1nc(C(=O)Nc2ccc(N3CCOC3=N)cc2)c(C(=O)Nc2ccc(Cl)cn2)s1 [Example 13, N^5-(5-Chloropyridin-2-yl)-N^4-[4-(2-imino-1,3-oxazolidin-3-yl)phenyl]-2-methyl-1,3-thiazole-4,5-dicarboxamide methanesulphonate]
